From patent US4769235A, “Immunodominant epitope of the circumsporozoite surface protein” (New York University, priority 1984, dated 1988)
“Also recorded” adds a separate entry of the source. No end group written: not given here.

What was measured:
[1] = test system: binding of monoclonal antibody 2G3 to the CS protein P. knowlesi; test: Inhibition radioimmunoassay: binding of 125I-labelled monoclonal antibody 2G3 to P. knowlesi CS protein; conditions: for Inhibitory activity on binding of monoclonal antibody 2G3 to CS protein (in words): FIGS. 1, 2 / Table 3
Experimental: (§1) The immunoactivity of the synthetic peptides was evaluated by measuring their ability to inhibit the reaction between the monoclonal anti-CS and the antigen (CS protein). Antigen was purified from sporozoites, as disclosed in the Malaria Vaccine patent application and as also described by Vanderberg, supra, and Zavala, F., et al, supra, 1982, is preferably employed using ^125 I-labeled antibody.
(§2) Competitive inhibition of the antigen-antibody reaction by the thus synthesized peptides was measured by the following radioimmunoassay. P. knowlesi sporozoite CS protein was used as the antigen.
(§3) (a) Preparation of antigen: 3,000 purified P. knowlesi sporozoites (Vanderberg et al., Military Medicine 134:1183, 1969) in 50 μl of phosphate buffered saline (PBS) containing protease inhibitors, were delivered to the bottom of polystyrene (Falcon 3911 plate, B-D and Co., Oxnard, Calif.) microtiter plates, which were sealed with parafilm and frozen at -70° C. for at least ten minutes. The plates were then allowed to defrost slowly at room temperature. This procedure was repeated six times. Then the plates were incubated at 4° C. overnight, and at 56° C. for five minutes. The P. knowlesi extract was then removed from the wells and these were washed three times with PBS containing 1% bovine serum albumin (BSA) and 0.1% NaN3. The wells were then filled with PBS-BSA-NaN3 for a few hours at room temperature.
(§4) All synthetic peptides were dissolved in PBS at a concentration of 10 mM and subsequently diluted serially in PBS-1% BSA/0.1% NaN3. Twenty-five μl of serial dilutions of each peptide were added to the wells coated with antigen. Control wells received only the diluent. Then, 25 μl of the ^125 I-labelled monoclonal antibody (about 5-10ng, 10 ^5 cpm) were added to the wells. The microtiter plates were incubated at 4° C. for 18 hours, washed 5 times with PBS-BSA-NaN3 and then the wells were counted for well-bound antibody. (LKB 1260 Muilti-gamma γ-counter LKB Instruments, Inc., Gaithersburg, Md.). […]

[2] = test system: binding of monoclonal antibody 5H8 to the CS protein P. knowlesi; test: Inhibition radioimmunoassay: binding of 125I-labelled monoclonal antibody 5H8 to P. knowlesi CS protein; conditions: summary of FIGS. 1, 3 / Table 3
Experimental: as §1, §2
(§5) (a) Preparation of antigen: 3,000 purified P. knowlesi sporozoites (Vanderberg et al., Military Medicine 134:1183, 1969) in 50 μl of phosphate buffered saline (PBS) containing protease inhibitors, were delivered to the bottom of polystyrene (Falcon 3911 plate, B-D and Co., Oxnard, Calif.) microtiter plates, which were sealed with parafilm and frozen at -70° C. for at least ten minutes. The plates were then allowed to defrost slowly at room temperature. This procedure was repeated six times. […]
(§6) All synthetic peptides were dissolved in PBS at a concentration of 10 mM and subsequently diluted serially in PBS-1% BSA/0.1% NaN3. […] The microtiter plates were incubated at 4° C. for 18 hours, washed 5 times with PBS-BSA-NaN3 and then the wells were counted for well-bound antibody. […]

[3] = test system: binding of radiolabelled 8E11 to the CS protein of P. knowlesi; test: Inhibition radioimmunoassay: binding of radiolabelled monoclonal antibody 8E11 to P. knowlesi CS protein
Experimental: as §1, §2, §3, §4

[4] = test system: monoclonal anti-CS / CS protein of P. knowlesi; test: Reactivity of synthetic peptides with monoclonal anti-CS (antibody not specified); format: binding; conditions: antibody not given; compared with (1-12) or (5-12) where stated
Experimental: Four monoclonal antibodies (2G3, 5H8, 8B8, and 8E11) were used in immunoactivity testing of synthesized shorter length analogs of the 12-peptide. The purpose was further localization and identification of the epitope contained therein.
After synthesis, cleavage and purification, the peptides were tested for reactivity with monoclonal anti-CS, preferably partially purified. The anti-CS used in these tests were produced by ascites tumor induction using hybridoma cells resulting from the fusion of plasmacytoma cells with spleen cells of a mouse immunized with the parasite, as described by Cochrane, A. H. et al, supra, and as disclosed in the Malaria Vaccine patent application.
The immunoactivity of the synthetic peptides was evaluated by measuring their ability to inhibit the reaction between the monoclonal anti-CS and the antigen (CS protein). […]
Competitive inhibition of the antigen-antibody reaction by the thus synthesized peptides was measured by the following radioimmunoassay. […]
as §6

[5] = test system: monoclonal antibody 2G3 against the surface protein of P. knowlesi; test: Binding of 125I-labelled tetraeicosapeptide to Sepharose beads bearing monoclonal antibody 2G3; set-up: species or system mouse
Source text: (§7) Monoclonal antibodies against surface antigens of sporozoites of the simian malaria parasite Plasmodium knowlesi were produced by fusion of plasmacytoma cells with spleen cells of a mouse immunized witn the parasite as previously described by Cochrane et al., supra., (1982) and described in detail in the Malaria Vaccine patent application. The monoclonal antibodies (four idiotypes: 2G3, 8B8, 5H8 and 8E11 were partially purified from ascites of mice bearing hybridomas by 50% ammonium sulphate precipitation followed by molecular sieve chromatography on Sephadex G-200.
(§8) To determine whether the 24-peptide is recognized by all monoclonal antibodies, 5 mg of purified monoclonal antibodies were bound to 1 ml of CNBr activated Sepharose 4B (Pharmacia Fine Chemicals, Piscataway, N.J., U.S.A.) according to instructions of the manufacturer. The 24 amino acid peptide was radiolabelled with ^125 I with the Boulton-Hunter reagent, to a specific activity of approximately 10^4 cpm/μg. Twenty μl of beads bearing the different antibodies were incubated for 60 minutes at room temperature in the presence of 100 μl of PBS-BSA containing either 1 μg of the radiolabelled peptide alone or radiolabelled peptide in the presence of […] of cold tetraeicosapeptide. The beads were then washed by centrifugation with PBS-BSA and counted in a gamma-counter.

[6] = test system: monoclonal antibody 5H8 against the surface protein of P. knowlesi; test: Binding of 125I-labelled tetraeicosapeptide to Sepharose beads bearing monoclonal antibody 5H8; set-up: species or system mouse
Source text: as §7, §8

[7] = test system: monoclonal antibody 8B8 against the surface protein of P. knowlesi; test: Binding of 125I-labelled tetraeicosapeptide to Sepharose beads bearing monoclonal antibody 8B8; set-up: species or system mouse
Source text: as §7, §8

[8] = test system: monoclonal antibody 8A8 against the surface protein of P. knowlesi; test: Binding of 125I-labelled tetraeicosapeptide to Sepharose beads bearing monoclonal antibody 8A8; set-up: species or system mouse
[9] = test system: monoclonal antibody (3D11) against the surface protein of P. berghei; test: Binding of 125I-labelled tetraeicosapeptide to control beads bearing monoclonal antibody 3D11
Experimental: as §8

monoclonal antibody 8E11 = test: Binding of 125I-labelled tetraeicosapeptide to Sepharose beads bearing monoclonal antibody 8E11; set-up: species or system mouse; conditions: other experiments, not shown
Source text: as §7, §8

monoclonal antibody 6B8 = test: Binding of 125I-labelled tetraeicosapeptide to Sepharose beads bearing monoclonal antibody 6B8; set-up: species or system mouse; conditions: other experiments, not shown
Source text: as §7, §8

[10] = test system: binding of monoclonal antibody 2G3 to the CS protein P. knowlesi; conditions: cited from earlier work
[11] = test system: binding of monoclonal antibody 8B8 to the CS protein P. knowlesi; test: Inhibition radioimmunoassay: binding of 125I-labelled monoclonal antibody 8B8 to P. knowlesi CS protein; conditions: text summary of FIG. 4 / Table 3
Experimental: as §1, §2, §5, §6

[12] = 2G3 beads in PBS-BSA + excess of cold tetraeicosapeptide
[13] = 5H8 beads in PBS-BSA + excess of cold tetraeicosapeptide
[14] = 8B8 beads in PBS-BSA + excess of cold tetraeicosapeptide
[15] = 8A8 beads in PBS-BSA + excess of cold tetraeicosapeptide
[16] = control 3D11 beads suspended in PBS-BSA

H-QAQGDGANAGQPQAQGDGANAGQP-NH2 [Peptide 1-24]
Inhibitory activity on binding of monoclonal antibody 2G3 to CS protein (in words) [1]: almost identical | Inhibitory activity on binding of monoclonal antibody 5H8 to CS protein (in words) [2]: almost identical | Inhibition of binding of antibody 8E11 to CS protein (in words) [3]: inhibited | IC50 ([3]; FIG. 1, read-out: Concentration giving about 50% inhibition of binding of radiolabelled 8E11 to the CS protein): ~10 µM | Reactivity with monoclonal anti-CS (in words) [4]: reacted | % of input of radiolabelled tetraeicosa peptide that bound to the beads [5, 12]: 0.2 % of input | cpm of radiolabelled tetraeicosa peptide that bound to the beads [5, 12]: 25 cpm | % of input of radiolabelled tetraeicosa peptide that bound to the beads ([5]; 2G3 beads suspended in PBS-BSA): 25.8 % of input | cpm of radiolabelled tetraeicosa peptide that bound to the beads ([5]; 2G3 beads suspended in PBS-BSA, 1 μg radiolabelled peptide): 2922 cpm | % of input of radiolabelled tetraeicosa peptide that bound to the beads [6, 13]: 0.2 % of input | cpm of radiolabelled tetraeicosa peptide that bound to the beads [6, 13]: 20 cpm | % of input of radiolabelled tetraeicosa peptide that bound to the beads ([6]; 5H8 beads suspended in PBS-BSA): 19.7 % of input | cpm of radiolabelled tetraeicosa peptide that bound to the beads ([6]; 5H8 beads suspended in PBS-BSA): 2332 cpm | % of input of radiolabelled tetraeicosa peptide that bound to the beads [7, 14]: 0.2 % of input | cpm of radiolabelled tetraeicosa peptide that bound to the beads [7, 14]: 20 cpm | % of input of radiolabelled tetraeicosa peptide that bound to the beads ([7]; 8B8 beads suspended in PBS-BSA): 27.8 % of input | cpm of radiolabelled tetraeicosa peptide that bound to the beads ([7]; 8B8 beads suspended in PBS-BSA): 3155 cpm | % of input of radiolabelled tetraeicosa peptide that bound to the beads [8, 15]: 0.2 % of input | cpm of radiolabelled tetraeicosa peptide that bound to the beads [8, 15]: 25 cpm | % of input of radiolabelled tetraeicosa peptide that bound to the beads ([8]; 8A8 beads suspended in PBS-BSA): 10.3 % of input | cpm of radiolabelled tetraeicosa peptide that bound to the beads ([8]; 8A8 beads suspended in PBS-BSA): 1092 cpm | cpm of radiolabelled tetraeicosa peptide that bound to the beads ([9]; control 3D11 beads in PBS-BSA + excess of cold tetraeicosapeptide): 0 cpm | % of input of radiolabelled tetraeicosa peptide that bound to the beads [9, 16]: 0.2 % of input | cpm of radiolabelled tetraeicosa peptide that bound to the beads [9, 16]: 25 cpm | Binding of radiolabelled (1-24) to beads bearing 8E11 (in words) (monoclonal antibody 8E11): Analogous results | Binding of radiolabelled (1-24) to beads bearing 6B8 (in words) (monoclonal antibody 6B8): Analogous results | Reactivity with monoclonal anti-CS 2G3 (previous work) [10]: interacted simultaneously with two molecules of 2G3

QAQGDGANAGQP-NH2 [Peptide 1-12, NH2 Gln-Ala-Gln-Gly-Asp-Gly-Ala-Asn-Ala-Gly-Gln-ProCONH2]
Inhibitory activity on binding of monoclonal antibody 8B8 to CS protein (in words) [11]: strongly inhibitory | Inhibitory activity on binding of monoclonal antibody 2G3 to CS protein (in words) [1]: almost identical; also recorded: strongly inhibitory | Molar concentration of peptide (×5) necessary for 50% inhibition of binding of monoclonal antibody 2G3 ([1]; head prints (×5), radiolabeled 2G3, CS protein P. knowlesi immobilized on wells, 4° C. for 18 hours): 10^-13 Molar | Inhibitory activity on binding of monoclonal antibody 5H8 to CS protein (in words) [2]: almost identical; also recorded: strongly inhibitory | Inhibitory effect on binding of 8E11 to CS protein at a fixed concentration ([3]; at a concentration of 10^-2 M): no appreciable inhibitory effect | Reactivity with monoclonal anti-CS (in words) [4]: very efficient inhibitors | Reactivity with monoclonal anti-CS 2G3 (previous work) [10]: very effectively inhibited
